Ends that are not written are not given here.
How the values were obtained:
[1] = system: autophagic flux in activated MRC-5 cells; test: Autophagic flux (LC3-II:LC3-I, p62 western blot; mRFP-GFP-LC3 live-cell imaging); type: cell-based, human; conditions: TGF-β1 10 ng/mL, peptide 50 µM, 24 h
Procedure: According to the manufacturer's instructions, MRC-5 cells were infected with mRFP-GFP-LC3 adenoviral particles. After infection, the cells were cultured for another 24 h and seeded on a CLSM dish at a density of 5 × 10^4 cells. After adherence, the cells were treated with 0 or 10 ng mL^-1 TGF-β1 for 24 h. On the other hand, in order to detect whether peptide could regulate the autophagic flux, the stable infected MRC-5 cells were seeded on a CLSM dish at a density of 5 × 10^4 cells. After adherence, the cells were treated with saline, Ac-GFFY-A2 (50 μM) or A2 (50 μM) plus TGF-β1 (10 ng mL^-1) for 24 h. The cells solely treated by saline as control group. Discarding the medium and washing the cells with cold PBS buffer. The autophagic flux was detected by Live Cell Imaging Microscopy (Leica TCS SP5). page 18: […] -3' and [NT]. […] The autophagic flux was detected by Live Cell Imaging Microscopy (Leica TCS SP5). […] The protein concentration was measured using BCA Protein Assay Kit (Thermo Scientific). […] The protein transferred PVDF membranes were incubated with following primary antibodies at 4°C overnight: Then the membranes were incubated with horseradish peroxidase (HRP)-conjugated secondary antibodies at room temperature for 1 h, and protein signals were detected using an enhanced chemiluminescence kit (Pierce). […] The co -precipitates were resolved using SDS-PAGE and detected with immunoblotting. […]

MRC-5 cells = test: Western blot of α-SMA, Col 1 and fibronectin in TGF-β1 treated MRC-5 cells; type: cell-based, human; conditions: MRC-5 cells treated with TGF-β1, western blot, n = 3
Text: The progression of pulmonary fibrosis is closely associated with impaired autophagic flux by promoting the differentiation of fibroblast into myofibroblast. Given that Ac‐GFFY‐A2 peptide nanofibers have ability to restore the impaired autophagy, we proceeded to investigate their potential anti‐fibrotic effect. Fibroblasts and myofibroblasts are activated after tissue injury and in IPF patients, leading to increased ECM production and enhanced fibroblast migratory capacity.
Western blot analysis and co-immunoprecipitation
Total proteins were exacted from cells or tissues with RIPA lysis buffer (Beyotime Biotecnology). The protein concentration was measured using BCA Protein Assay Kit (Thermo Scientific). Equal amounts of lysates were resolved by SDS–PAGE. The protein transferred PVDF membranes were incubated with following primary antibodies at 4°C overnight: Then the membranes were incubated with horseradish peroxidase (HRP)-conjugated secondary antibodies at room temperature for 1 h, and protein signals were detected using an enhanced chemiluminescence kit (Pierce). […] The co -precipitates were resolved using SDS–PAGE and detected with immunoblotting. […]
The mice were then intravenously injected with 200 μL of sulfo-Cy5 labeled peptide (0.3 mg per mouse). Fluorescence imaging was performed using a IVIS Lumina II imaging (PerkinElmer, USA) at different time point post injection. […]

| Substance | autophagic flux [1] | protein expression of α-SMA, col 1 and fibronectin (MRC-5 cells) |
| --- | --- | --- |
| GGWLTRLLQTK-OH [A2, reference compound] | barely increased | hardly inhibited fibroblast to myofibroblast differentiation |
| Ac-GFFYGGWLTRLLQTK-OH [Ac-GFFY-A2] | restoration of autophagic flux | remarkably reduced |

From paper PMC11267363, “Supramolecular Nanofibers Ameliorate Bleomycin‐Induced Pulmonary Fibrosis by Restoring Autophagy” (Advanced Science, 2024)
